Laboratory results: ChEMBL document CHEMBL4765323, “Design, synthesis, and biological evaluation of novel miconazole analogues containing selenium as potent antifungal agents” (Eur J Med Chem, 2020)
Converted amounts (≈) assume the structure as drawn. The source made the active and inactive calls. The calls are words filed in the database; no cut-off is given here.

Experiments:
[1] = tested on: Candida albicans; assay: Inhibition of CYP51 in azole-resistant Candida albicans ATCC […] assessed as Lanosterol level at 2 ug/ml incubated for 16 hrs by LC-MS analysis relative to control; parameters: scale not given: the % may be the effect or the level left; conditions: dose 2.0 µg/ml
[2] = tested on: Candida albicans; assay: Antifungal activity against fluconazole-resistant Candida albicans 632 measured after 24 hrs by micro-broth dilution assay; assay type: functional
[3] = tested on: Candida albicans; assay: Inhibition of CYP51 in azole-resistant Candida albicans ATCC […] assessed as Obtusifoliol level at 0.5 ug/ml incubated for 16 hrs by LC-MS analysis relative to control; parameters: scale not given: the % may be the effect or the level left; conditions: dose 0.5 µg/ml
[4] = tested on: Candida albicans; assay: Inhibition of CYP51 in azole-resistant Candida albicans ATCC […] assessed as Obtusifoliol level at 0.125 ug/ml incubated for 16 hrs by LC-MS analysis relative to control; parameters: scale not given: the % may be the effect or the level left; conditions: dose 0.125 µg/ml
[5] = tested on: Candida albicans; assay: Inhibition of CYP51 in azole-resistant Candida albicans ATCC […] assessed as ergosterol level at 2 ug/ml incubated for 16 hrs by LC-MS analysis relative to control; parameters: scale not given: the % may be the effect or the level left; conditions: dose 2.0 µg/ml
[6] = tested on: Candida albicans; assay: Inhibition of CYP51 in azole-resistant Candida albicans ATCC […] assessed as Eburicol level at 0.5 ug/ml incubated for 16 hrs by LC-MS analysis relative to control; parameters: scale not given: the % may be the effect or the level left; conditions: dose 0.5 µg/ml
[7] = tested on: Candida albicans; assay: Inhibition of CYP51 in azole-resistant Candida albicans ATCC […] assessed as Lanosterol level at 8 ug/ml incubated for 16 hrs by LC-MS analysis relative to control; parameters: scale not given: the % may be the effect or the level left; conditions: dose 8.0 µg/ml
[8] = tested on: Candida albicans; assay: Antifungal activity against fluconazole-resistant Candida albicans 17 measured after 24 hrs by micro-broth dilution assay; assay type: functional
[9] = tested on: Candida albicans; assay: Inhibition of CYP51 in azole-resistant Candida albicans ATCC […] assessed as Eburicol level at 0.03125 ug/ml incubated for 16 hrs by LC-MS analysis relative to control; parameters: scale not given: the % may be the effect or the level left; conditions: dose 0.03125 µg/ml
[10] = tested on: Pichia kudriavzevii; assay: Antifungal activity against Candida krusei AS 2.1045 measured after 24 hrs by micro-broth dilution assay; assay type: functional
[11] = tested on: Candida albicans; assay: Inhibition of CYP51 in azole-resistant Candida albicans ATCC […] assessed as Eburicol level at 2 ug/ml incubated for 16 hrs by LC-MS analysis relative to control; parameters: scale not given: the % may be the effect or the level left; conditions: dose 2.0 µg/ml
[12] = tested on: Candida albicans; assay: Inhibition of CYP51 in azole-resistant Candida albicans ATCC […] assessed as Obtusifoliol level at 0.03125 ug/ml incubated for 16 hrs by LC-MS analysis relative to control; parameters: scale not given: the % may be the effect or the level left; conditions: dose 0.03125 µg/ml
[13] = tested on: Cryptococcus neoformans; assay: Antifungal activity against Cryptococcus neoformans CGMCC2.3161 measured after 72 hrs by micro-broth dilution assay; assay type: functional
[14] = tested on: Candida albicans; assay: Antifungal activity against fluconazole-resistant Candida albicans strain 904 measured after 24 hrs by micro-broth dilution assay; assay type: functional
[15] = tested on: [Candida] zeylanoides; assay: Antifungal activity against Candida zeylanoides CMGCC2.3739 measured after 24 hrs by micro-broth dilution assay; assay type: functional; conditions: Dujonia zeylanoides
[16] = tested on: Candida albicans; assay: Inhibition of CYP51 in azole-resistant Candida albicans ATCC […] assessed as Obtusifoliol level at 8 ug/ml incubated for 16 hrs by LC-MS analysis relative to control; parameters: scale not given: the % may be the effect or the level left; conditions: dose 8.0 µg/ml
[17] = tested on: Candida albicans; assay: Inhibition of CYP51 in azole-resistant Candida albicans ATCC […] assessed as ergosterol level at 0.5 ug/ml incubated for 16 hrs by LC-MS analysis relative to control; parameters: scale not given: the % may be the effect or the level left; conditions: dose 0.5 µg/ml
[18] = tested on: Candida albicans; assay: Inhibition of CYP51 in azole-resistant Candida albicans ATCC […] assessed as Lanosterol level at 0.5 ug/ml incubated for 16 hrs by LC-MS analysis relative to control; parameters: scale not given: the % may be the effect or the level left; conditions: dose 0.5 µg/ml
[19] = tested on: Candida albicans; assay: Inhibition of CYP51 in azole-resistant Candida albicans ATCC […] assessed as inhibition of ergosterol biosynthesis by measuring ergosterol content at 8 ug/ml incubated for 16 hrs by LC-MS analysis relative to control; parameters: scale not given: the % may be the effect or the level left; conditions: dose 8.0 µg/ml
[20] = tested on: Candida parapsilosis; assay: Antifungal activity against Candida parapsilosis ATCC 22019 measured after 24 hrs by micro-broth dilution assay; assay type: functional; conditions: Lodderomyces parapsilosis
[21] = tested on: Candida albicans; assay: Inhibition of CYP51 in azole-resistant Candida albicans ATCC […] assessed as ergosterol level at 0.03125 ug/ml incubated for 16 hrs by LC-MS analysis relative to control; parameters: scale not given: the % may be the effect or the level left; conditions: dose 0.03125 µg/ml
[22] = tested on: Candida albicans; assay: Inhibition of CYP51 in azole-resistant Candida albicans ATCC […] assessed as ergosterol level at 0.125 ug/ml incubated for 16 hrs by LC-MS analysis relative to control; parameters: scale not given: the % may be the effect or the level left; conditions: dose 0.125 µg/ml
[23] = tested on: Candida albicans; assay: Antifungal activity against Candida albicans CPCC400616 measured after 24 hrs by micro-broth dilution assay; assay type: functional
[24] = tested on: Candida albicans; assay: Antifungal activity against fluconazole-resistant Candida albicans CaR measured after 24 hrs by micro-broth dilution assay; assay type: functional
[25] = tested on: Nakaseomyces glabratus; assay: Antifungal activity against clinical isolate Candida glabrata measured after 24 hrs by micro-broth dilution assay; assay type: functional
[26] = tested on: Candida albicans; assay: Inhibition of CYP51 in azole-resistant Candida albicans ATCC […] assessed as Lanosterol level at 0.125 ug/ml incubated for 16 hrs by LC-MS analysis relative to control; parameters: scale not given: the % may be the effect or the level left; conditions: dose 0.125 µg/ml
[27] = tested on: Candida albicans; assay: Antifungal activity against Candida albicans 901 measured after 24 hrs by micro-broth dilution assay; assay type: functional
[28] = tested on: Candida albicans; assay: Inhibition of CYP51 in azole-resistant Candida albicans ATCC […] assessed as Lanosterol level at 0.03125 ug/ml incubated for 16 hrs by LC-MS analysis relative to control; parameters: scale not given: the % may be the effect or the level left; conditions: dose 0.03125 µg/ml
[29] = tested on: Candida albicans; assay: Antifungal activity against Candida albicans ATCC SC5314 measured after 24 hrs by micro-broth dilution assay; assay type: functional
[30] = tested on: Candida albicans; assay: Inhibition of CYP51 in azole-resistant Candida albicans ATCC […] assessed as Eburicol level at 8 ug/ml incubated for 16 hrs by LC-MS analysis relative to control; parameters: scale not given: the % may be the effect or the level left; conditions: dose 8.0 µg/ml
[31] = tested on: Candida albicans; assay: Inhibition of CYP51 in azole-resistant Candida albicans ATCC […] assessed as Obtusifoliol level at 2 ug/ml incubated for 16 hrs by LC-MS analysis relative to control; parameters: scale not given: the % may be the effect or the level left; conditions: dose 2.0 µg/ml
[32] = tested on: Candida albicans; assay: Inhibition of CYP51 in azole-resistant Candida albicans ATCC […] assessed as Eburicol level at 0.125 ug/ml incubated for 16 hrs by LC-MS analysis relative to control; parameters: scale not given: the % may be the effect or the level left; conditions: dose 0.125 µg/ml
[33] = tested on: Aspergillus fumigatus; assay: Antifungal activity against Aspergillus fumigatus CGMCC 3.7795 measured after 72 hrs by micro-broth dilution assay; assay type: functional
[34] = tested on: Candida albicans; assay: Antibiofilm activity against FCZ-Resistant Candida albicans CPCC400616 assessed as sessile minimum inhibitory concentration of biofilm formation at 80% after 24 hrs by XTT assay; assay type: functional
[35] = Ratio of hemolysis activity in rabbit RBC to MIC for Candida albicans; assay type: toxicity; conditions: rabbit red blood cells (RBC)
[36] = tested on: Candida albicans; assay: Antibiofilm activity against FCZ-Resistant Candida albicans CPCC400616 assessed as sessile minimum inhibitory concentration of biofilm formation at 50% after 3 hrs by XTT assay; assay type: functional
[37] = tested on: Candida albicans; assay: Fungicidal activity against Candida albicans CPCC400616 at 8 times MIC measured after 4 hrs by time-kill curve assay; assay type: functional, organism-based
[38] = tested on: Candida albicans; assay: Antibiofilm activity against FCZ-Resistant Candida albicans CPCC400616 assessed as sessile minimum inhibitory concentration of biofilm formation at 80% after 3 hrs by XTT assay; assay type: functional
[39] = tested on: Candida albicans; assay: Fungicidal activity against Candida albicans CPCC400616 at MIC to 8 times MIC measured after 24 hrs by time-kill curve assay; assay type: functional
[40] = tested on: Candida albicans; assay: Antibiofilm activity against FCZ-Resistant Candida albicans CPCC400616 assessed as sessile minimum inhibitory concentration of biofilm formation at 80% after 6 hrs by XTT assay; assay type: functional
[41] = tested on: Candida albicans; assay: Antibiofilm activity against FCZ-Resistant Candida albicans CPCC400616 assessed as sessile minimum inhibitory concentration of biofilm formation at 80% after 1.5 hrs by XTT assay; assay type: functional
[42] = tested on: Candida albicans; assay: Antibiofilm activity against FCZ-Resistant Candida albicans CPCC400616 assessed as sessile minimum inhibitory concentration of biofilm formation at 50% after 24 hrs by XTT assay; assay type: functional
[43] = tested on: Candida albicans; assay: Fungicidal activity against Candida albicans CPCC400616 measured after 48 hrs; assay type: functional
[44] = tested on: Candida albicans; assay: Antibiofilm activity against FCZ-Resistant Candida albicans CPCC400616 assessed as sessile minimum inhibitory concentration of biofilm formation at 50% after 1.5 hrs by XTT assay; assay type: functional
[45] = Ratio of MFC for fungicidal activity against Candida albicans CPCC400616 to MIC for Antifungal activity against Candida albicans CPCC400616; assay type: functional; conditions: time 24 hrs
[46] = tested on: Candida albicans; assay: Antibiofilm activity against FCZ-Resistant Candida albicans CPCC400616 assessed as sessile minimum inhibitory concentration of biofilm formation at 50% after 6 hrs by XTT assay; assay type: functional
[47] = tested on: Erythrocyte; assay: Hemolytic activity in rabbit RBC assessed as hemolysis ratio at 1 ug/ml measured after 3 hrs relative to control; assay type: ADME, cell-based, Oryctolagus cuniculus; conditions: dose 1 µg/ml

OC(Cn1cncn1)(Cn1cncn1)c1ccc(F)cc1F [FLUCONAZOLE]
Activity [1]: 7.4%
MIC [2]: > 128 µg/mL
Activity [3]: 9%
Activity [4]: 11.4%
Activity [5]: 5.2%
Activity [6]: 70.6%
Activity [7]: 9.4%
MIC [8]: 128 µg/mL (≈ 418 µM)
Activity [9]: 2.9%
MIC [10]: 32 µg/mL (≈ 104 µM)
Activity [11]: 75.2%
Activity [12]: 1.6%
MIC [13]: 4 µg/mL (≈ 13.1 µM)
MIC [14]: > 128 µg/mL
MIC [15]: 4 µg/mL (≈ 13.1 µM)
Activity [16]: 9.2%
Activity [17]: 7.1%
Activity [18]: 9.5%
Activity [19]: 74.8%
MIC [20]: 4 µg/mL (≈ 13.1 µM)
Activity [21]: 12.2%
Activity [22]: 8.3%
MIC [23]: 4 µg/mL (≈ 13.1 µM)
MIC [24]: > 128 µg/mL
MIC [25]: 32 µg/mL (≈ 104 µM)
Activity [26]: 7.2%
MIC [27]: > 128 µg/mL
Activity [28]: 9.8%
MIC [29]: 1 µg/mL (≈ 3.27 µM)
Activity [30]: 70.6%
Activity [31]: 17.7%
Activity [32]: 6.7%
MIC [33]: > 128 µg/mL

Clc1ccc(C(Cn2ccnc2)[Se]Cc2ccccc2Cl)c(Cl)c1 (stereo not given)
Activity [34]: >128 µg/mL
selectivity ratio [35]: 256
Activity [1]: 13.6%
MIC [2]: 1 µg/mL (≈ 2.25 µM)
Activity [3]: 17.4%
Activity [4]: 9.5%
Activity [5]: 19.8%
Activity [6]: 70.3%
Activity [7]: 12.4%
MIC [8]: 0.13 µg/mL (≈ 0.292 µM)
Activity [9]: 7.4%
MIC [10]: 0.13 µg/mL (≈ 0.292 µM)
Activity [11]: 75.1%
Activity [12]: 1%
Activity [36]: 16 µg/mL
Activity [37]: Active
MIC [13]: 0.25 µg/mL (≈ 0.562 µM)
MIC [14]: 0.25 µg/mL (≈ 0.562 µM)
MIC [15]: 1 µg/mL (≈ 2.25 µM)
Activity [16]: 8.1%
Activity [17]: 78.9%
Activity [18]: 10%
Activity [19]: 77.7%
MIC [20]: 0.13 µg/mL (≈ 0.292 µM)
Activity [38]: 64 µg/mL
Activity [21]: 86.4%
Activity [22]: 80.3%
MIC [23]: 0.02 µg/mL (≈ 0.045 µM)
MIC [24]: 0.06 µg/mL (≈ 0.135 µM)
Activity [39]: >3 log10CFU/ml
Activity [40]: >128 µg/mL
Activity [41]: 8 µg/mL
MIC [25]: 0.5 µg/mL (≈ 1.12 µM)
Activity [26]: 11.6%
Activity [42]: >128 µg/mL
MIC [27]: 0.5 µg/mL (≈ 1.12 µM)
MIC [43]: 0.125 µg/mL (≈ 0.281 µM)
Activity [28]: 0%
Activity [44]: 4 µg/mL
MIC [29]: 0.01 µg/mL (≈ 0.0225 µM)
Activity [30]: 64.6%
Activity [31]: 7.8%
Activity [32]: 5.3%
MFC/MIC ratio [45]: 8
MIC [33]: 2 µg/mL (≈ 4.5 µM)
Activity [46]: 128 µg/mL
Activity [47]: 0 µg/mL
